Measurements as given in patent publication US20100317613A1, “ACTIVITY ENHANCER FOR DETOXIFYING ENZYME” (TAKARA BIO INC., priority 2006, published 2010).

What was measured:
[1] = test system: Intracellular Glutathione (GSH); test: Enhancing effect on intracellular glutathione (GSH) content in Hepa1c1c7 cells; type: cell-based; conditions: for GSH content (−fold): 24 hours, relative to water control
Procedure: […] was measured by a partially modified method from a method described in Clarissa Gerhauser et al., Cancer Research 57, 272-278 (1997). Hepa1c1c7 cells were suspended in a Dulbecco-modified Eagle medium containing 10% of fetal bovine serum and 1% of penicillin-streptomycin at 4×10^5 cells/ml. To each well of a 96 well-microtiter plate, 0.2 ml of the cell suspension was added, and cultured at 37° C. overnight in the presence of 5% carbon dioxide gas. Then, the medium in the wells was replaced with a Dulbecco-modified Eagle medium. To each well, 0.4 μl of a solution of a test substance in water was added and then cultured for 24 hours. The agarobiose obtained in Preparation Example 1 and a commercially available agaro-oligosaccharide (trade name: Agaoligo) were used as test substances. For a negative control, water was added in place of a test substance. After completion of the culture, the medium was removed and the cells were washed with a phosphate buffer. The solution was removed, and freeze-thaw of the cells was repeated three times. Thereto was added 0.1 ml of buffer A ([…] sodium phosphate buffer (pH 7.5), 6.3 mM EDTA) to obtain a cell lysate. To 25 it of the cell lysate, 100 al of a reaction solution (25 mM Tris-HCl (pH 7.4), 1 mM G6P, 30 μM NADP, 2 U/ml G6PDH, 0.25 U/ml glutathione reductase (manufactured by Sigma), 0.6 mM DTNB) was added. After incubation at room temperature for 5 minutes, an absorbance at 405 nm was measured. This activity assay was performed in triplicate. At the same time, as a standard, serial 2-fold dilutions of 2 to 200 al of […] were used in place of the cell lysate. The protein content was measured by using a 50-fold dilution of the cell lysate with a phosphate buffer and MicroBCA protein assay kit. The GSH content was expressed as a GSH content relative to the control and calculated by the following formula.
GSH content=[(GSH content in test substance-added section)/(Protein content in test substance-added section)]/[(GSH content in water-added section)/(Protein content in water-added section)]

mouse = test: Single oral dose toxicity in mouse; type: in vivo; conditions: oral, 2,000 mg/kg body weight as a single dose
Procedure: For example, in the case of oral administration, there is no fatal case when agarobiose, agarotetraose, agarohexaose, agarooctaose, a mixture thereof, or DGE is administered to a mouse in an amount of 2,000 mg/kg body weight as a single dose. Further, there is no fatal case when the above-described active ingredient is administered orally as a single dose of 2,000 mg/kg body weight to a rat.

Quinone Reductase (QR) = test: Quinone reductase (QR) activity in Hepa1c1c7 cells; type: cell-based; conditions: for QR activity (fold vs water control): Table 3 (QR activity test), 24 hours; for QR activity (fold vs water control) / QR activity (−fold): relative to water control
Procedure: A QR activity was measured by a partially modified method from a method described in Hans J. Prochaska et al., Analytical Biochemistry 169, 328-336 (1988). Hepa1c1c7 cells were suspended in a Dulbecco-modified Eagle medium containing 10% of fetal bovine serum and 1% of penicillin-streptomycin at 4×10^5 cells/ml. To each well of a 96 well-microtiter plate, 0.2 ml of the cell suspension was added, and cultured at 37° C. overnight in the presence of 5% carbon dioxide gas. Then, the medium in the wells was replaced with a Dulbecco-modified Eagle medium. To each well, 0.4 μl of a solution of a test substance in water was added and then cultured for 24 hours. The agarobiose obtained in Preparation Example 1 and a commercially available agaro-oligosaccharide (trade name: Agaoligo) were used as test substances. For a negative control, water was added in place of a test substance. After completion of the culture, the medium was removed and the cells were washed with a phosphate buffer. Then, 0.1 ml of a cell-lysis solution (2 mM EDTA (pH 7.8), 1% NP-40) was added and incubated at 37° C. for 10 minutes to obtain an enzyme solution. To 25 it of the enzyme solution, 100 it of a reaction solution (25 mM Tris-HCl (pH 7.4), 0.67% BSA, 0.01% Tween 20, 5 μM FAD, 1 mM G6P, 30 μM NADP, 0.3 mg/ml MTT, 2 U/ml G6PDH (manufactured by Sigma)) was added. At this time, a substrate was added or not added. In the case where a substrate was added, menadion (manufactured by Sigma) was further added at a final concentration of 50 μM into the reaction solution. After incubation at room temperature for 30 minutes, 75 μl of 2N Na2CO3 was added to terminate the reaction, and an absorbanc at 590 nm was measured. This activity assay was performed in triplicate. The protein content was measured by using a 50-fold dilution of the enzyme solution with a phosphate buffer and MicroBCA protein assay kit. The QR activity was expressed as a QR activity relative to the control and calculated by the following formula.
QR activity={[(Absorbance in test substance-added section in the presence of substrate)−(Absorbance in test substance-added section in the absence of substrate)]/(Protein content in test substance-added section)}/{[(Absorbance in water-added section in the presence of substrate)−(Absorbance in water-added section in the absence of substrate)]/(Protein content in water-added section)}

[2] = test system: Glutathione S-transferase (GST); test: Enhancing effect on glutathione S-transferase (GST) activity in Hepa1c1c7 cells; type: cell-based; conditions: for GST activity (−fold): relative to water control
Procedure: Hepa1c1c7 cells (ATCC CRL-2026) were suspended in a Dulbecco-modified Eagle medium (manufactured by Sigma) containing 10% of fetal bovine serum (manufactured by MP Biomedicals Co.) and 1% of penicillin-streptomycin (manufactured by Nacalai Tesque, Inc.) at 4×10^5 cells/ml. To each well of a 96 well-microtiter plate, 0.2 ml of the cell suspension was added, and cultured at 37° C. overnight in the presence of 5% carbon dioxide gas. Then, the medium in the wells was replaced with a Dulbecco-modified Eagle medium. To each well, 0.4 μl of a solution of a test substance in water was added and then cultured for 24 hours. The agarobiose obtained in Preparation Example 1 and a commercially available agaro-oligosaccharide (trade name: Agaoligo, manufactured by Takara Bio Inc., containing agarobiose, agarotetraose, agarohexaose and agarooctaose in 20 to 25% each) were used as test substances. For a negative control, water was added in place of a test substance. After completion of the culture, the medium was removed and the cells were washed with a phosphate buffer. Then, 0.1 ml of a cell-lysis solution (10 mM Tris-HCl (pH 7.4), 38.5 mM KCl, and 1 mM EDTA, 1% NP-40) was added and incubated at 37° C. for 10 minutes to obtain an enzyme solution. To 25 μl of the enzyme solution, 155 μl of a reaction solution (0.13 M potassium phosphate buffer solution (pH 6.5), 1.3 mM glutathione) was added. Immediately before measurement, 20 al of 10 mM of CDNB (2,4-dinitrochlorobenzene, manufactured by TOKYO CHEMICAL INDUSTRY CO., LTD.) as a reaction substrate was added, and a change in an absorbance at 340 nm was measured. This activity assay was performed in triplicate. The protein content was measured by using a 50-fold dilution of the enzyme solution with a phosphate buffer and MicroBCA protein assay kit (manufactured by PIERCE Co.). The GST activity was expressed as a GST activity relative to the control and calculated by the following formula.
GST activity=(Maximum rate coefficient in test substance-added section/Protein content in test substance-added section)/(Maximum rate coefficient in water-added section/Protein content in water-added section)
An effect on a GST activity caused by using DGE obtained in Preparation Example 2 was determined in accordance with Example 1. Each measurement was repeated three times. The GST activity was expressed as a GST activity relative to the control and calculated by the same formula as in Example 1.

HL-60 cell = test: Cancer cell growth suppressing activity using HL-60 cell; type: cell-based; conditions: HPLC fraction at retention time 4.05 to 4.16 minutes, found to be DGE
Procedure: The neutralized product was subjected to the following normal phase HPLC. Each peak was collected, dried under reduced pressure and then dissolved in water. A cancer cell growth suppressing activity of each fraction was measured using a HL-60 cell.

[3] = 24 hours, final concentration 100 μM
[4] = 24 hours, final concentration 200 μM

OC[C@H]1O[C@@H](O[C@H]2[C@H]3OC[C@@H]2OC(O)[C@H]3O)[C@H](O)[C@@H](O)[C@H]1O (mixture of isomers) [Agarobiose, agarobiose]
Effect on GSH content (in words) [1]: significant increase
GSH content (−fold) ([1]; final concentration 100 μM): 1.3 fold
GSH content (−fold) ([1]; final concentration 200 μM): 1.9 fold
Fatal cases after oral administration (mouse): no fatal case
Effect on QR activity (in words) (Quinone Reductase (QR)): significant increase
QR activity (fold vs water control) (Quinone Reductase (QR); final concentration 25 μM): 1.4
QR activity (fold vs water control) (Quinone Reductase (QR); final concentration 50 μM): 1.4
QR activity (fold vs water control) (Quinone Reductase (QR); final concentration 100 μM): 1.8
QR activity (fold vs water control) (Quinone Reductase (QR); final concentration 200 μM): 2.2
Effect on GST activity (in words) [2]: significant increase
GST activity (−fold) ([2]; 24 hours, final concentration 25 μM): 1.4 fold
GST activity (−fold) ([2]; 24 hours, final concentration 50 μM): 1.5 fold
GST activity (−fold) [2, 3]: 1.9 fold
GST activity (−fold) [2, 4]: 1.9 fold

OC[C@H]1O[C@@H](O[C@H]2[C@H]3OC[C@@H]2O[C@@H](O[C@H]2[C@@H](O)[C@@H](CO)O[C@@H](O[C@H]4[C@H]5OC[C@@H]4O[C@@H](O[C@H]4[C@@H](O)[C@@H](CO)O[C@@H](O[C@H]6[C@H]7OC[C@@H]6OC(O)[C@H]7O)[C@@H]4O)[C@H]5O)[C@@H]2O)[C@H]3O)[C@H](O)[C@@H](O)[C@H]1O (mixture of isomers) [agarohexaose]
Fatal cases after oral administration (mouse): no fatal case

O=C1C=CC(CO)OC1O [DGE, L-glycero-1,5-epoxy-1αβ,6-dihydroxy-cis-hexa-3-en-2-one]
Fatal cases after oral administration (mouse): no fatal case
Cancer cell growth suppressing activity (HL-60 cell): had a cancer cell growth suppressing activity
Effect on GST activity (in words) [2]: significant increase
GST activity (−fold) ([2]; final concentration 5 μM): 1.4 fold
GST activity (−fold) ([2]; final concentration 10 μM): 1.4 fold
GST activity (−fold) ([2]; final concentration 20 μM): 1.6 fold

OC[C@H]1O[C@@H](O)[C@H](O)[C@@H](O[C@@H]2O[C@H]3CO[C@@H]([C@@H]2O)[C@@H]3O[C@@H]2O[C@H](CO)[C@H](O)[C@H](O[C@@H]3O[C@H]4CO[C@@H]([C@@H]3O)[C@@H]4O[C@@H]3O[C@H](CO)[C@H](O)[C@H](O[C@@H]4O[C@H]5CO[C@@H]([C@@H]4O)[C@@H]5O)[C@H]3O)[C@H]2O)[C@H]1O [Neoogarohexaose, neoagarohexaose, reference compound]
Effect on QR activity (in words) (Quinone Reductase (QR)): did not result in a significant increase
QR activity (−fold) (Quinone Reductase (QR); final concentration 100 μM): 1.0 fold
QR activity (−fold) (Quinone Reductase (QR); final concentration 200 μM): 1.1 fold
Effect on GST activity (in words) [2]: did not result in a significant increase
GST activity (−fold) [2, 3]: 1.1 fold
GST activity (−fold) [2, 4]: 1.1 fold

OC[C@H]1O[C@@H](O[C@H]2[C@H]3OC[C@@H]2O[C@@H](O[C@H]2[C@@H](O)[C@@H](CO)O[C@@H](O[C@H]4[C@H]5OC[C@@H]4OC(O)[C@H]5O)[C@@H]2O)[C@H]3O)[C@H](O)[C@@H](O)[C@H]1O (some centres unmarked) [agarotetraose]
Fatal cases after oral administration (mouse): no fatal case

agarooctaose
Fatal cases after oral administration (mouse): no fatal case
